Reference: US20030158540A1, “METHOD FOR DECREASING CATHETER-ASSOCIATED BACTERIURIA” (priority 2002, published 2003)

Legend:
[1] = tested on: catheter-associated urinary tract infections; settings: 30 ml in drainage bags every eight hours, cited from earlier work
[2] = tested on: bacteriuria / bag contamination; settings: cited from earlier work
[3] = tested on: bacterial contamination of the drainage bag; settings: 30 ml every eight hours; thirty-one patients; cited from earlier work
[4] = tested on: types and levels of bacteria in the drainage bag; test: One-time instillation and drainage of irrigation solution into urinary drainage bags of long-term catheterized patients; urine cultures at 24-hour intervals; format: in vivo; settings: for mean values for categories of colony count: score 3 = >100,000, 2 = 10,000 to 100,000, 1 = <10,000; for mean number of different types of organisms identified: about 50 ml one-time dose
From the text: The type of irrigation solution used constituted the independent variable. The irrigation solutions were sterile hydrogen peroxide and sterile distilled vinegar (as used herein, containing about 5 wt. % acetic acid). […] Hydrogen peroxide decomposes rapidly when exposed to light or organic matter. Vinegar is a weak acetic acid solution derived from alcohol by the action of Acetobacter. Vinegar is distilled to remove color and other impurities, yielding what is referred to as white vinegar.
The dependent variables of the investigation were the types and levels of bacteria in the drainage bag, at twenty-four hour intervals of incubation, during treatment conditions. A certified laboratory was contracted to determine the germicidal values of the solutions tested. After twenty-four hours of incubation at about 37° C. […], bacterial growth was recorded at twenty-four hour intervals. Laboratory protocol for reporting types and number of bacteria provided results by identification of the organism by species present in the specimen.
For the study, a total of fifty-seven subjects were initially identified to participate in the study: fifteen from three hospitals and forty-two from ten skilled nursing facilities. […] Patients who were febrile, acutely ill, receiving antibiotic therapy, or with symptoms of urinary tract infection were excluded based on a review of the patient's chart. Patients with other methods of urinary drainage, such as condom catheter drainage, superpubic catheterization, and intermittent urethral catheterization, were not considered. Moreover, because of the chance of cross-infection, infected and uninfected patients with indwelling urinary catheters who shared the same room or adjacent beds were not considered.
The patients were randomly assigned to three experimental groups: one group was designated a control group whose catheter drainage bags were not treated with an irrigation solution; the drainage bags of the remaining groups were treated with one of the two irrigation solutions investigated. The methods of data collection were verified prior to the commencement of the study by use of a literature review and institutional review board pre approval. All urine collection was made between 5:00 A.M. and 6:30 A.M. The urine specimens were promptly refrigerated and transported to the microbiology laboratory. Organisms and colony counts were identified by standard laboratory methods.
The research approach carried out in the study comprised four primary steps: (1) collection of urine from the catheter drainage bags for baseline cultures; (2) instillation of the irrigation solution into the drainage bags; (3) collection of urine from the drainage bags at 24-hour intervals; and (4) evaluation of the results of bacterial growth at 24-hour intervals. The initial concentration of bacteria in each drainage bag was determined prior to instillation of the irrigation solution. With regard to the patients in the groups whose drainage bags were treated with hydrogen peroxide or distilled vinegar, the drainage bags (approximate filled volume of about 50 to 150 ml) were emptied of any residual urine, after which the distal segment of the Foley catheter was clamped to avoid any possibility of reagent reflux into the patient's bladder.

[5] = tested on: urinary bag bacterial growth; settings: daily decontamination with dilute bleach (5.25%); cited from earlier work
[6] = forty-eight hours after instillation

SMILES: OO [Hydrogen Peroxide, Hydrogen peroxide]
- catheter-associated urinary tract infections ([1]; P<0.05): significant reduction
- bags from which bacteria continued to be isolated [1]: five of thirty
- rate of bacteriuria ([2]; instillation of H2O2, N=238): no reduction
- rate of bag contamination ([2]; peroxide group, control group 34%, P≦0.05): 17%
- bacterial contamination of the drainage bag [3]: could be eliminated effectively
- mean values for categories of colony count ([4]; 00 h (baseline)): 6.2
- mean number of different types of organisms identified ([4]; 00 h (baseline, before instillation)): 2.6
- mean number of different types of organisms identified ([4]; 24 h): 2.3
- mean values for categories of colony count ([4]; 24 h): 5.6
- mean number of different types of organisms identified ([4]; 48 h): 2.1
- mean values for categories of colony count ([4]; 48 h): 5.3
- mean number of different types of organisms identified ([4]; 72 h): 1.5
- mean values for categories of colony count ([4]; 72 h): 3.8
- colonies of bacteria compared to the control group (post hoc analysis) [4, 6]: no statistically significant difference
- types of organisms compared to the control group (post hoc analysis) [4, 6]: no statistically significant difference

SMILES: OCl [sodium hypochlorite]
- bag cultures [5]: ≤ 50 CFU's/ml
- decrease in urinary bag bacterial growth [5]: 76.5%
